According to publication PMC10541198, “Specific quinone reductase 2 inhibitors reduce metabolic burden and reverse Alzheimer’s disease phenotype in mice” (The Journal of Clinical Investigation, 2023):
“And” between values parts separate entries of the source, which are not always exact repeats. Identical values can stand only once. Like-named read-outs stand apart in the source and are kept apart here.

Assay: Pharmacokinetic study, IV and PO, plasma, brain and liver
Assay type: in vivo, mouse
Details: for tolerability / adverse effects: 50 mg/kg p.o. or 10 mg/kg i.v., up to 24 hours; for Plasma concentration, Mean: BQL = below LLOQ (10 ng/ml); for k el: read-out: Kel (Lambda_z) (converted); for MRT inf: read-out: MRT (MRTinf) (converted); for MRT last: read-out: MRT (MRTlast) (converted); for AUC(0-inf): read-out: AUC0→∞ (AUCINF_obs) (converted)
Method: The purpose of this study was to determine the pharmacokinetic characteristics of compound NG-537 in C57BL/6J mice following intravenous (IV) and peroral (PO) administration. Levels of NG-537 were determined in blood plasma , brain and liver over time after a single dose .
3.1 Reagents and consumables
DMSO Chromasolv Plus, HPLC grade, ≥99.7% (Sigma-Aldrich, USA; Cat #34869) Acetonitrile Chromasolv, gradient grade, for HPLC, ≥99.9% (Sigma-Aldrich, USA; Cat #34851) Methanol Chromasolv Plus, for HPLC, ≥99.9% (Sigma -Aldrich, USA; Cat 34860) Formic acid for mass spectrometry, ~98% (Fluka, USA; Cat #94318)
Physiological saline (“Yuria -Pharm”, Ukraine, S/# AA13249/1 -1)
Amyl alcohol (UOS, Ukraine) […]
Compound Thiamethoxam was used as internal standard (IS).
Compound NG-537 was supplied as dry powder. The batches of working formulations were prepared 20 min prior to the in vivo study. The vehicle was saline. To prepare the formulation, saline was added to the test compound. The mixture was vortexed for 1 min.
Gradient HPLC system (Shimadzu, Japan)
MS/MS detector API 3000 PE with TurboIonSpray Electrospray module (PE Sciex, Canada) VWR Membrane Nitrogen Generators N2-04-L1466. nitrogen purity 99%+ (VWR, USA) Water purification system Millipore Milli-Q Gradient A10 (Millipore, France) Fixed Speed Vortex Mixer “IKA Lab Dancer” (IKA®-Werke GmbH & Co. KG, Germany; IP-40) Centrifuge 4-15C (Qiagen) (Sigma, Germany)
Ultrasonic bath (Daihan, Korea; WUC-A03H)
(1 picture or pasted object on this page, not shown here)
Study design, animal selection, handling and treatment were all in accordance with the Enamine PK study protocols and the Institutional Animal Care and Use Guidelines. Animal treatment and plasma samples preparation were conducted by the Animal Laboratory personnel at Enamine/Bienta. Male C57BL/6J mice (9-11 weeks old, body weight from 26.1 g to 39.8 g and average body weight across all groups 31.9 g SD = 3.3 g) were used in this study. The animals were randomly assigned to the treatment groups before the pharmacokinetic study; all animals were fasted for 4 h before dosing. Seven time points (5, 15, 30, 60, 240, 480, and 1440 min) were set for this pharmacokinet ic study. Each of the time point treatment group included 4 animals. There was also control group of one animal . Dosing was done according to the treatment schedule outlined in Table 1. Mice were injected IP with 2,2,2-tribromoethanol at the dose of 250 mg/kg prior to drawing the blood. Blood collection was performed from the left ventricle of the heart in tubes containing 10 μl of heparin solution (400 ui/ml). The brain and liver were perfused before sampling. The animal died due to exsanguination during perfusion under anesthesia. All samples were immediately processed, flash-frozen and stored at -70°C until subsequent analysis.
Number of Delivery Target Dose Target Dose Target Dose
Mice Compound ID Formulation Route Level Concentration Volume […]
Plasma samples (40 μl) were mixed with 200 μl of IS solution. After mixing by pipetting and centrifuging for 4 min at 6,000 rpm, 2 μl of each supernatant was injected into LC-MS/MS system.
Solution of compound Thiamethoxam (400 ng/ml in water-methanol mixture 1:9, v/v) was used as internal standard (IS) for quantification of NG-537 in plasma samples.
Analyses of samples were conducted by the Bioanalytical Laboratory personnel at Enamine/Bienta.
Concentrations of NG-537 were determined using high performance liquid chromatography/tandem mass spectrometry (HPLC-MS/MS). Shimadzu HPLC system consisted 2 isocratic pumps LC-10ADvp, an autosampler SIL-20AC, a sub-controller FCV-14AH and a degasser DGU-14A. Mass spectrometric analysis was performed using API 3000 (triple-quadrupole) instrument from AB Sciex (Canada) with an electro -spray (ESI) interface. The data acquisition and system control was performed using Analyst 1.5.2 software (AB […]
3.6 HPLC-MS/MS Conditions
Chromatographic Conditions: […]

[1] = IV 10 mg/kg, 15 min, listed as NG-537, 10 mg/kg
[2] = PO 50 mg/kg, 15 min, listed as NG-537, 50 mg/kg
[3] = male, C57BL/6J, mouse, brain, PO 50 mg/kg
[4] = male, C57BL/6J, mouse, liver, PO 50 mg/kg
[5] = male, C57BL/6J, mouse, plasma, IV 10 mg/kg
[6] = male, C57BL/6J, mouse, plasma, PO 50 mg/kg

## Cc1ccc(-c2cn3cccc(C)c3n2)cc1S(=O)(=O)N1CCNCC1 [YB-537]
  tolerability / adverse effects: nontoxic and well tolerated
Listed as NG-537
  tolerability / adverse effects: No obvious adverse effects were observed
C57BL/6J, mouse, in vivo, PO 50 mg/kg vs IV 10 mg/kg, male mice
  bioavailability: 82%
[1]
  Liver concentration, Mouse A-D: 17352 ng/g and 12944 ng/g and 10288 ng/g
  Plasma concentration, Mouse A-D: 1001 ng/mL and 1370 ng/mL and 836 ng/mL
IV 10 mg/kg, 240 min
  Plasma concentration, Mean: BQL
IV 10 mg/kg, 240 min, all four BQL
  Plasma concentration, Mouse A-D: BQL
IV 10 mg/kg, 480 min
  Plasma concentration, Mean: BQL
IV 10 mg/kg, 480 min, all four BQL
  Plasma concentration, Mouse A-D: BQL
IV 10 mg/kg, 1440 min
  Plasma concentration, Mean: BQL
IV 10 mg/kg, 1440 min, all four BQL
  Plasma concentration, Mouse A-D: BQL
[2]
  Brain concentration, Mouse A-D: 227 ng/g and 139 ng/g and 162 ng/g
  Plasma concentration, Mouse A-D: 1721 ng/mL and 2715 ng/mL and 1977 ng/mL
PO 50 mg/kg, 30 min, listed as NG-537, 50 mg/kg
  Plasma concentration, Mouse A-D: 1258 ng/mL and 2296 ng/mL and 1618 ng/mL
PO 50 mg/kg, 60 min, listed as NG-537, 50 mg/kg
  Brain concentration, Mouse A-D: 158 ng/g and 264 ng/g and 241 ng/g
PO 50 mg/kg, 480 min
  Plasma concentration, Mean: BQL
PO 50 mg/kg, 1440 min
  Plasma concentration, Mean: BQL
PO 50 mg/kg, 1440 min, all four BQL
  Plasma concentration, Mouse A-D: BQL
brain, PO 50 mg/kg
  AUC0→t=240min (AUClast): 30500 ng·min/g
  AUC0→∞ (AUCINF_obs): 33100 ng·min/g
  time of peak brain concentration after oral administration: approximately one
  time of peak brain concentration following p.o. administration: 1 h
brain, oral administration, equivalent of 203 ng/g
  peak brain concentration, molar equivalent: approximately 500 nM
liver, PO 50 mg/kg
  AUC0→t=240min (AUClast): 5530000 ng·min/g
  AUC0→∞ (AUCINF_obs): 5850000 ng·min/g
male, C57BL/6J, mouse, brain, iv, 10 mg/kg, IV 10 mg/kg, 15 min, read-out: Brain concentration, Mean
  concentration at 15 min: 1070 ng/g
male, C57BL/6J, mouse, brain, po, 50 mg/kg, PO 50 mg/kg, 15 min, read-out: Brain concentration, Mean
  concentration at 15 min: 172 ng/g
male, C57BL/6J, mouse, brain, po, 50 mg/kg, PO 50 mg/kg, 15 min, read-out: Brain concentration, Mouse A-D
  concentration at 15 min: 161 ng/g
male, C57BL/6J, mouse, brain, po, 50 mg/kg, PO 50 mg/kg, 60 min, read-out: Brain concentration, Mean
  concentration at 60 min: 203 ng/g
male, C57BL/6J, mouse, brain, po, 50 mg/kg, PO 50 mg/kg, 60 min, read-out: Brain concentration, Mouse A-D
  concentration at 60 min: 148 ng/g
male, C57BL/6J, mouse, brain, po, 50 mg/kg, PO 50 mg/kg, 240 min, BQL = below LLOQ, read-out: Brain concentration, Mouse A-D
  concentration at 240 min: 37 ng/g
male, C57BL/6J, mouse, brain, po, 50 mg/kg, PO 50 mg/kg, 240 min, read-out: Brain concentration, Mean
  concentration at 240 min: 28 ng/g
male, C57BL/6J, mouse, in vivo, po, 50 mg/kg, brain, PO 50 mg/kg, read-out: T1/2 (HL_Lambda_z)
  half-life: 63.5 min
male, C57BL/6J, mouse, in vivo, po, 50 mg/kg, mouse brain, acute oral dosing, read-out: clearance half life (converted)
  half-life: ~60 min
male, C57BL/6J, mouse, liver, iv, 10 mg/kg, IV 10 mg/kg, 15 min, read-out: Liver concentration, Mean
  concentration at 15 min: 13100 ng/g
male, C57BL/6J, mouse, liver, iv, 10 mg/kg, IV 10 mg/kg, 15 min, read-out: Liver concentration, Mouse A-D
  concentration at 15 min: 12000 ng/g
male, C57BL/6J, mouse, liver, po, 50 mg/kg, PO 50 mg/kg, 15 min, read-out: Liver concentration, Mean
  concentration at 15 min: 67700 ng/g
male, C57BL/6J, mouse, liver, po, 50 mg/kg, PO 50 mg/kg, 60 min, read-out: Liver concentration, Mean
  concentration at 60 min: 28000 ng/g
male, C57BL/6J, mouse, liver, po, 50 mg/kg, PO 50 mg/kg, 240 min, read-out: Liver concentration, Mean
  concentration at 240 min: 3900 ng/g
male, C57BL/6J, mouse, plasma, iv, 10 mg/kg, IV 10 mg/kg
  concentration at 5 min: 2010 ng/mL
male, C57BL/6J, mouse, plasma, iv, 10 mg/kg, IV 10 mg/kg, 15 min, read-out: Plasma concentration, Mean
  concentration at 15 min: 1020 ng/mL
male, C57BL/6J, mouse, plasma, iv, 10 mg/kg, IV 10 mg/kg, 15 min, read-out: Plasma concentration, Mouse A-D
  concentration at 15 min: 863 ng/mL
male, C57BL/6J, mouse, plasma, iv, 10 mg/kg, IV 10 mg/kg, 30 min, read-out: Plasma concentration, Mean
  concentration at 30 min: 432 ng/mL
male, C57BL/6J, mouse, plasma, iv, 10 mg/kg, IV 10 mg/kg, 60 min, read-out: Plasma concentration, Mean
  concentration at 60 min: 191 ng/mL
male, C57BL/6J, mouse, plasma, po, 50 mg/kg, PO 50 mg/kg
  concentration at 5 min: 451 ng/mL
male, C57BL/6J, mouse, plasma, po, 50 mg/kg, PO 50 mg/kg, 15 min, read-out: Plasma concentration, Mean
  concentration at 15 min: 2030 ng/mL
male, C57BL/6J, mouse, plasma, po, 50 mg/kg, PO 50 mg/kg, 15 min, read-out: Plasma concentration, Mouse A-D
  concentration at 15 min: 1720 ng/mL
male, C57BL/6J, mouse, plasma, po, 50 mg/kg, PO 50 mg/kg, 30 min, read-out: Plasma concentration, Mean
  concentration at 30 min: 1720 ng/mL
male, C57BL/6J, mouse, plasma, po, 50 mg/kg, PO 50 mg/kg, 30 min, read-out: Plasma concentration, Mouse A-D
  concentration at 30 min: 1730 ng/mL
male, C57BL/6J, mouse, plasma, po, 50 mg/kg, PO 50 mg/kg, 60 min, read-out: Plasma concentration, Mean
  concentration at 60 min: 1130 ng/mL
male, C57BL/6J, mouse, plasma, po, 50 mg/kg, PO 50 mg/kg, 240 min, read-out: Plasma concentration, Mean
  concentration at 240 min: 151 ng/mL
male, C57BL/6J, mouse, plasma, po, 50 mg/kg, PO 50 mg/kg, 480 min, three BQL, 15 marked as Grubbs outlier, read-out: Plasma concentration, Mouse A-D
  concentration at 480 min: 15 ng/mL
[3]
  Tmax: 60 min
  k el: 0.000182 s⁻¹
  MRT inf: 88.2 min
  MRT last: 67.5 min
male, C57BL/6J, mouse, brain, PO 50 mg/kg, read-out: Cmax (peak concentration)
  Cmax: 203 ng/g
[4]
  Tmax: 15 min
  k el: 0.000203 s⁻¹
  MRT inf: 69.5 min
  MRT last: 54.9 min
male, C57BL/6J, mouse, liver, PO 50 mg/kg, read-out: Cmax
  Cmax: 67700 ng/g
male, C57BL/6J, mouse, liver, PO 50 mg/kg, read-out: T1/2 (HL_Lambda_z)
  half-life: 56.8 min
[5]
  C0: 2820 ng/mL
  AUC(0-inf): 867 ng·h/mL
  k el: 0.000695 s⁻¹
  MRT inf: 21.4 min
  MRT last: 15.4 min
male, C57BL/6J, mouse, plasma, IV 10 mg/kg, read-out: AUC0→t=60min (AUClast) (converted)
  AUC(0-t): 790 ng·h/mL
male, C57BL/6J, mouse, plasma, IV 10 mg/kg, read-out: CL (Cl_obs)
  clearance: 190 mL/min/kg
male, C57BL/6J, mouse, plasma, IV 10 mg/kg, read-out: T1/2 (HL_Lambda_z)
  half-life: 16.6 min
male, C57BL/6J, mouse, plasma, IV 10 mg/kg, read-out: Vd (Vz_obs)
  Vd: 5 L/kg
[6]
  Tmax: 15 min
  AUC(0-inf): 3550 ng·h/mL
  k el: 0.000192 s⁻¹
  MRT inf: 76.2 min
  MRT last: 59.8 min
male, C57BL/6J, mouse, plasma, PO 50 mg/kg, read-out: AUC0→t=240min (AUClast) (converted)
  AUC(0-t): 3330 ng·h/mL
male, C57BL/6J, mouse, plasma, PO 50 mg/kg, read-out: Cmax
  Cmax: 2030 ng/mL
plasma, IV 10 mg/kg (summary table)
  Cmax: 2010 ng/ml(g)
